These results are taken from patent publication US20120252801A1, “ANTIFUNGAL COMPOUNDS” (Katholieke Universiteit Leuven, K.U.Leuven R&D, priority 2009, published 2012).

For one data set, the system named is C. albicans SC5314. The data set can be described thus: Minimal fungicidal concentration (MFC) against C. albicans. As to conditions: Candida albicans, 24 h at 37° C. in PBS, less than 1% survival relative to DMSO control. The format is cell-based. The protocol:
(§1) Two-fold dilution series of the compounds were prepared in 50% DMSO. 5 μl of these series were added to 95 μl PBS buffer inoculated with 1/500 cells of an overnight culture of either C. albicans, C. glabrata or C. krusei (final DMSO conc 2%). 2% DMSO served as negative control. After 24 h incubation at 37° C. of these cultures with the antifungal compounds in PBS, the cell cultures were plated on YPD agar and colony forming units (CFUs) were determined after incubation of the plates for 2 days. MFC was determined as the minimal concentration of a compound resulting in less than 1% survival of the yeast culture relative to the DMSO control.

The next data set deals with C. glabrata. The data set can be described thus: Minimal fungicidal concentration (MFC) against C. glabrata. In kind it is cell-based, Candida glabrata. The settings on record: Nakaseomyces glabratus; 24 h at 37° C. in PBS; less than 1% survival relative to DMSO control. The procedure: as §1
Another data set deals with A. fumigatus. The experiment in a line: Minimal inhibitory concentration (MIC) against A. fumigatus. The format is cell-based. As to conditions: Aspergillus fumigatus; minimal concentration that inhibits growth.
The subject of the next data set is Aspergillus flavus. The data set can be described thus: Minimal inhibitory concentration (MIC) against A. flavus. In kind it is cell-based. The settings on record: 24 h at 25° C. in ½ PDB, minimal concentration that inhibits growth. The procedure: (§2) To determine the MIC and MFC of a compound against Aspergillus flavus, Fusarium oxysporum or F. culmorum, a 2-fold dilution series of the compounds of the invention was incubated with the corresponding spore suspension in ½ PDB (potato dextrose broth, Difco) (2×10^4 spores/ml). […] MFC was determined as the minimal concentration of a compound resulting in less than 1% survival of the fungal culture relative to the DMSO control.

The next data set deals with Fusarium oxysporum. The data set can be described thus: Minimal inhibitory concentration (MIC) against F. oxysporum. The format is cell-based. The settings on record: 24 h at 25° C. in ½ PDB, minimal concentration that inhibits growth. The protocol: as §2
A further data set deals with HepG2 cells. The experiment in a line: Cellular cytostatic and/or cytotoxic effect on HepG2 cells. The format is cell-based. The protocol: Evaluation of the cytostatic and/or cytotoxic effect of compounds on certain specific eukaryotic cells is a standard procedure and well known to the person skilled in the art. The effect of a selection of compounds of the invention on the proliferation of HepG2 cells was measured.

≈ marks a conversion by molar mass, not a printed value.

For the molecule `CCN1CC(C)(C)OC(=O)C1CC(=O)Nc1ccc2c(ccn2C)c1` (stereo not shown) [CPD-07, 2-(4-ethyl-6,6-dimethyl-2-oxomorpholin-3-yl)-N-(1-methyl-1H-indol-5-yl)acetamide], the minimal fungicidal concentration (MFC) came out at 12.5 µg/mL (≈ 36.4 µM) in the data set with C. albicans SC5314 and 50 µg/mL (≈ 146 µM) against C. glabrata. The MIC against A. fumigatus worked out at 3.12 µg/mL (≈ 9.1 µM); against Aspergillus flavus, 25 µg/mL (≈ 72.8 µM); against Fusarium oxysporum, 50 µg/mL (≈ 146 µM). For the same molecule, the “LD30 48 h (lethal dose for 30% of the cells in culture)” value in the data set on HepG2 cells is over 25 µM.

For `CCN1CC(C)(C)OC(=O)C1CC(=O)NCc1ccc(Cl)cc1` (stereo not shown) [CPD-08, N-(4-chlorobenzyl)-2-(4-ethyl-6,6-dimethyl-2-oxomorpholin-3-yl)acetamide], the MFC against C. albicans SC5314 and against C. glabrata was 12.5 µg/mL (≈ 36.9 µM) each time. Further, the MIC is 6.25 µg/mL (≈ 18.4 µM) in the data set on A. fumigatus, 25 µg/mL (≈ 73.8 µM) against Aspergillus flavus and 50 µg/mL (≈ 148 µM) in the data set on Fusarium oxysporum. For the same molecule, the “LD30 48 h (lethal dose for 30% of the cells in culture)” value with HepG2 cells was over 25 µM.

As to `CCN1CC(C)(C)OC(=O)C1CC(=O)NCc1cccs1` (stereo not shown) [CPD-22, 2-(4-ethyl-6,6-dimethyl-2-oxomorpholin-3-yl)-N-(thiophen-2-ylmethyl)acetamide], the MFC was determined as 25 µg/mL (≈ 80.5 µM) with C. albicans SC5314 and 50 µg/mL (≈ 161 µM) with C. glabrata. Besides, the MIC in the data set with A. fumigatus is 25 µg/mL (≈ 80.5 µM); against Aspergillus flavus, 50 µg/mL (≈ 161 µM); with Fusarium oxysporum, 50 µg/mL (≈ 161 µM). For the same molecule, the “LD30 48 h (lethal dose for 30% of the cells in culture)” value in the data set with HepG2 cells was over 25 µM.

With `CCN1CC(C)(C)OC(=O)C1CC(=O)NCc1cccc(Cl)c1` (stereo not shown) [CPD-49, N-(3-chlorobenzyl)-2-(4-ethyl-6,6-dimethyl-2-oxomorpholin-3-yl)acetamide], the MFC against C. albicans SC5314 and in the data set with C. glabrata was 6.25 µg/mL (≈ 18.4 µM) in each case. The MIC with A. fumigatus was determined as 3.12 µg/mL (≈ 9.22 µM); against Aspergillus flavus, 50 µg/mL (≈ 148 µM); in the data set with Fusarium oxysporum it was 50 µg/mL (≈ 148 µM). Further, the “LD30 48 h (lethal dose for 30% of the cells in culture)” value in the data set on HepG2 cells was over 25 µM.

Turning to `CCN1CC(C)(C)OC(=O)C1CC(=O)NCc1c(Cl)cccc1Cl` (stereo not shown) [CPD-51, N-(2,6-dichlorobenzyl)-2-(4-ethyl-6,6-dimethyl-2-oxomorpholin-3-yl)acetamide], the MFC with C. albicans SC5314 was determined as 12.5 µg/mL (≈ 33.5 µM); in the data set on C. glabrata it was 25 µg/mL (≈ 67 µM). Moreover, the minimal inhibitory concentration (MIC) was found to be 12.5 µg/mL (≈ 33.5 µM) in the data set with A. fumigatus, 50 µg/mL (≈ 134 µM) in the data set on Aspergillus flavus and 50 µg/mL (≈ 134 µM) against Fusarium oxysporum. Moreover, in the data set on HepG2 cells, the “LD30 48 h (lethal dose for 30% of the cells in culture)” value was over 25 µM.

On to `CC(C)c1ccc(NC(=O)CC2C(=O)OC(C)(C)CN2S(C)(=O)=O)cc1` (stereo not shown) [CPD-75, 2-(6,6-dimethyl-4-(methylsulfonyl)-2-oxomorpholin-3-yl)-N-(4-isopropylphenyl)acetamide], for which the MFC with C. albicans SC5314 and against C. glabrata was over 25 µg/mL each time. The values for the minimum inhibitory concentration (MIC) with A. fumigatus, with Aspergillus flavus and in the data set with Fusarium oxysporum were 12.5 µg/mL (≈ 32.7 µM), over 25 µg/mL and over 25 µg/mL, respectively.

Consider `CCN1CC(C)(C)OC(=O)C1CC(=O)NCc1ccc(C)cc1` (stereo not shown) [CPD-76, 2-(4-ethyl-6,6-dimethyl-2-oxomorpholin-3-yl)-N-(4-methylbenzyl)acetamide], for which the MFC is 25 µg/mL (≈ 78.5 µM) in the data set on C. albicans SC5314 and 6.25 µg/mL (≈ 19.6 µM) against C. glabrata. For the same molecule, the minimal inhibitory concentration (MIC) was 3.12 µg/mL (≈ 9.81 µM) in the data set with A. fumigatus, 25 µg/mL (≈ 78.5 µM) in the data set on Aspergillus flavus and over 25 µg/mL with Fusarium oxysporum.

In the case of `CCN1CC(C)(C)OC(=O)C1CC(=O)NCc1ccccc1C(F)(F)F` (stereo not shown) [CPD-77, 2-(4-ethyl-6,6-dimethyl-2-oxomorpholin-3-yl)-N-(2-(trifluoromethyl)benzyl)acetamide], the results for the minimal fungicidal concentration (MFC) against C. albicans SC5314 and in the data set with C. glabrata were 25 µg/mL (≈ 67.1 µM) and 12.5 µg/mL (≈ 33.6 µM), respectively. In addition, the figures for the minimal inhibitory concentration (MIC) against A. fumigatus, in the data set on Aspergillus flavus and against Fusarium oxysporum were 3.12 µg/mL (≈ 8.39 µM), 25 µg/mL (≈ 67.1 µM) and 25 µg/mL (≈ 67.1 µM), respectively.

For the molecule `CCN1CC(C)(C)OC(=O)C1CC(=O)NCc1cccc(C(F)(F)F)c1` (stereo not shown) [CPD-78, 2-(4-ethyl-6,6-dimethyl-2-oxomorpholin-3-yl)-N-(3-(trifluoromethyl)benzyl)acetamide], the minimal fungicidal concentration (MFC) is 25 µg/mL (≈ 67.1 µM) in the data set with C. albicans SC5314 and 12.5 µg/mL (≈ 33.6 µM) against C. glabrata. In addition, the minimum inhibitory concentration (MIC) in the data set on A. fumigatus was 6.25 µg/mL (≈ 16.8 µM); in the data set on Aspergillus flavus it was over 25 µg/mL; against Fusarium oxysporum, over 25 µg/mL.

As to `CCN1CC(C)(C)OC(=O)C1CC(=O)NCc1ccccc1OC` (stereo not shown) [CPD-79, 2-(4-ethyl-6,6-dimethyl-2-oxomorpholin-3-yl)-N-(2-methoxybenzyl)acetamide], the minimal fungicidal concentration (MFC) was over 25 µg/mL with C. albicans SC5314 and 25 µg/mL (≈ 74.8 µM) against C. glabrata. The MIC was 12.5 µg/mL (≈ 37.4 µM) against A. fumigatus, over 25 µg/mL in the data set with Aspergillus flavus and over 25 µg/mL against Fusarium oxysporum.

`CCN1CC(C)(C)OC(=O)C1CC(=O)NCc1cccc(OC)c1` (stereo not shown) [CPD-80, 2-(4-ethyl-6,6-dimethyl-2-oxomorpholin-3-yl)-N-(3-methoxybenzyl)acetamide]: the results for the MFC against C. albicans SC5314 and in the data set with C. glabrata were 25 µg/mL (≈ 74.8 µM) and 12.5 µg/mL (≈ 37.4 µM), respectively. Besides, the MIC with A. fumigatus is 6.25 µg/mL (≈ 18.7 µM); with Aspergillus flavus, over 25 µg/mL; in the data set on Fusarium oxysporum, over 25 µg/mL.

With `CCN1CC(C)(C)OC(=O)C1CC(=O)NCc1ccccc1-c1ccccc1` (stereo not shown) [CPD-81, N-(biphenyl-2-ylmethyl)-2-(4-ethyl-6,6-dimethyl-2-oxomorpholin-3-yl)acetamide], the MFC in the data set with C. albicans SC5314 and against C. glabrata was 12.5 µg/mL (≈ 32.9 µM) in each case. Moreover, the values for the MIC against A. fumigatus, in the data set with Aspergillus flavus and against Fusarium oxysporum were 3.12 µg/mL (≈ 8.21 µM), 25 µg/mL (≈ 65.7 µM) and 25 µg/mL (≈ 65.7 µM), respectively.

`CCN1CC(C)(C)OC(=O)C1CC(=O)NCc1cccc(-c2ccccc2)c1` (stereo not shown) [CPD-82, N-(biphenyl-3-ylmethyl)-2-(4-ethyl-6,6-dimethyl-2-oxomorpholin-3-yl)acetamide]: the minimal fungicidal concentration (MFC) in the data set on C. albicans SC5314 and with C. glabrata was 12.5 µg/mL (≈ 32.9 µM) each time. The MIC against A. fumigatus stood at 3.12 µg/mL (≈ 8.21 µM); against Aspergillus flavus, 25 µg/mL (≈ 65.7 µM); in the data set with Fusarium oxysporum, 25 µg/mL (≈ 65.7 µM).

The MFC is the lowest tested concentration that kills the fungus rather than only halting it. A low value points to greater fungicidal potency. For orientation: MIC means the smallest concentration in the dilution series that meets the test's criterion for growth inhibition.
